From publication PMC9356039, “Multifunctional synthetic nano-chaperone for peptide folding and intracellular delivery” (Nature Communications, 2022)

Legend:
[1] = tested on: human liver cancer (HepG2) xenograft; experiment: Tumor growth inhibition, intratumoral injection; type: in vivo, Balb/c male nude mice; conditions: HepG2 xenograft mice; intratumoral every 3 days, 14 days; 50 mg SNCP8/kg, 5 μmole st-p53pep/kg; n = 3; versus untreated control
Procedure: All of animal experiments were conducted in accordance with the Institutional Animal Care and Use Committees (IACUC) of Seoul National University. 5-week old Balb/c male nude mice were purchased (ORIENT BIO, Korea). Mice were housed in an environmentally controlled room (23 °C, with 55 ± 5% humidity and 12 h / 12 h light–dark cycle). To prepare tumor-bearing mice, a suspension of the HepG2 cells (6 × 10^6 cells) in 100 µL of sterilized PBS was subcutaneously injected (n = 3, biologically independent animals). Tumor-bearing mice were reared until the tumor volumes reach ~50 mm^3 and used for experiments. […] The changes in tumor volume and body weight were monitored over 14 days. Tumor volumes were calculated by using the equation of 1/2 × length × (width)^2, where the length and width are the longest and shortest diameters (mm) of the tumor, respectively. […] Bright field and fluorescence images from mice were obtained overtime for 3 days by using fluorescence in vivo imaging system, FoBI (Neoscience, Korea). The relative intensity of FAM fluorescence attached to st-p53pep was calculated by using the region of interest (ROI) analysis. The half-life of FAM fluorescence decay was determined by exponential curve fitting method with Origin 2017 (OriginLab, USA).

[2] = tested on: MDM2 in HepG2 cells; experiment: Western blot, MDM2 protein level; type: cell-based, human
Procedure: Cells were lysed with Pro-PREP (IntronBio, Korea) according to the manufacturer’s protocol. The samples were centrifuged at 2000 × g and 4 °C for 15 min. The supernatant was collected to a 1.5 mL ep-tube and stored at −80 °C. After protein quantification using Pierce^TM BCA assay kit (Thermo Fisher Scientific, USA), the same amount of protein was diluted in water containing 5×loading buffer (Biosesang, Korea) and loaded on SDS-PAGE gel (Bio-rad, USA). After electrophoresis in Tris-Glycine SDS buffer at 80 V for 120 min, proteins in a gel were transferred to a nitrocellulose membrane (0.45 μm, Bio-rad, USA) in 1× Tris-Glycine Native Buffer (GenDEPOT, Korea) with 10% methanol at 90 V, and 4 °C for 90 min under stirring condition. The membrane was blocked with 5% milk to inhibit non-specific binding and immersed overnight at 4 °C in the presence of primary antibodies; GAPDH (1:2000, Abcam, USA), p53 (1:1000, Cell signaling, USA), MDM2 (1:1000, Cell signaling, USA), Bcl2 (1:1000, Cell signaling, USA) and CytC (1:1000, Cell signaling, USA). Anti-rabbit goat pAb, horseradish peroxidase (HRP)-linked antibody (1:5000, Abcam, USA) was used as a secondary antibody and the membrane was incubated for 1 h. After the reaction with the detection agent West Pico PLUS (Thermo Fisher Scientific, USA), bands of protein were monitored by a ImageQuant^TM LAS 4000 mini (GE Healthcare, USA). […]

[3] = Whole-body FAM fluorescence decay in tumor after intratumoral injection; type: in vivo, Balb/c male nude mice; conditions: for rel. fluor. Int. (FAM): tumor ROI
Procedure: All of animal experiments were conducted in accordance with the Institutional Animal Care and Use Committees (IACUC) of Seoul National University. 5-week old Balb/c male nude mice were purchased (ORIENT BIO, Korea). Mice were housed in an environmentally controlled room (23 °C, with 55 ± 5% humidity and 12 h / 12 h light–dark cycle). To prepare tumor-bearing mice, a suspension of the HepG2 cells (6 × 10^6 cells) in 100 µL of sterilized PBS was subcutaneously injected (n = 3, biologically independent animals). Tumor-bearing mice were reared until the tumor volumes reach ~50 mm^3 and used for experiments. To investigate tumor growth inhibition efficiency, SNCP8@st-p53pep, SNCP8, and st-p53pep alone in 100 μL of PBS solution (50 mg SNCP8/kg, 5 μmole st-p53pep/kg) were directly injected into the tumor. The same volume of PBS solution was also directly treated into the tumor as a control. Intratumoral injection was performed at 3 day intervals. The changes in tumor volume and body weight were monitored over 14 days. Tumor volumes were calculated by using the equation of 1/2 × length × (width)^2, where the length and width are the longest and shortest diameters (mm) of the tumor, respectively. The relative tumor volume was derived from comparing it with the initial tumor volume. To observe sustainability and tumor exposure of st-p53pep in vivo, we used nude mice with HeLa and HepG2 cell xenografts prepared in the same manner as the tumor growth inhibition experiment. TAMRA-labeled SNCP8@ FAM-labeled st-p53pep was treated in the same manner as the tumor growth inhibition experiment instead of SNCP8@st-p53pep. Bright field and fluorescence images from mice were obtained overtime for 3 days by using fluorescence in vivo imaging system, FoBI (Neoscience, Korea). The relative intensity of FAM fluorescence attached to st-p53pep was calculated by using the region of interest (ROI) analysis. The half-life of FAM fluorescence decay was determined by exponential curve fitting method with Origin 2017 (OriginLab, USA).

[4] = CD spectroscopy, α-helicity by CONTIN-LL; type: physicochemical; conditions: for helix1 / helix2 / helix % / strand1 / strand2 / total helix / turns / unordered: CONTINLL from CD spectra
Procedure: CD spectra were measured using a J-810 spectropolarimeter (JASCO, Japan). Spectra were recorded from 250 nm to 190 nm wavelength using a 1 cm path-length cuvette. Scans were repeated five times and averaged. Molar ellipticity was calculated per amino acid residue. The concentrations of SNCP and p53pep were 0.2 mg/mL and 20 μM, respectively. All sample suspensions were incubated at least for 2 days at room temperature before CD measurement. To perform temperature-dependent CD experiments, the spectra were recorded at 10 °C interval over a temperature range of 25 to 75 °C, with 30 min incubation time to reach equilibrium at each temperature. The α-helicity of peptides was calculated by using the CONTIN-LL algorithms provided from the DICHROWEB server.

- rel. fluor. Int. (FAM) ([3]; 0 hours after intratumoral injection): 70000
- rel. fluor. Int. (FAM) ([3]; 6 hours after intratumoral injection): 21050
- rel. fluor. Int. (FAM) ([3]; 12 hours after intratumoral injection): 7081
- rel. fluor. Int. (FAM) ([3]; 24 hours after intratumoral injection): 501
- rel. fluor. Int. (FAM) ([3]; 48 hours after intratumoral injection): 1
- rel. fluor. Int. (FAM) ([3]; 72 hours after intratumoral injection): 1
- time until green fluorescence signal in tumor disappeared ([3]; tumor-bearing mouse, intratumoral injection): ≤ 24 h
- half-life (t1/2) of green (FAM) fluorescence decay in tumor ([3]; tumor-xenograft mice, intratumoral injection, ROI analysis of whole-body image, exponential fit): 3.5 h
- helix1 ([4]; 25 ℃): 0.186
- helix2 ([4]; 25 ℃): 0.16
- helix % ([4]; 25 ℃): 34.6%
- strand1 ([4]; 25 ℃): 0.062
- strand2 ([4]; 25 ℃): 0.054
- total helix ([4]; 25 ℃): 0.346
- turns ([4]; 25 ℃): 0.123
- unordered ([4]; 25 ℃): 0.415
- helix1 ([4]; 35 ℃): 0.176
- helix2 ([4]; 35 ℃): 0.154
- helix % ([4]; 35 ℃): 33%
- strand1 ([4]; 35 ℃): 0.059
- strand2 ([4]; 35 ℃): 0.054
- total helix ([4]; 35 ℃): 0.33
- turns ([4]; 35 ℃): 0.092
- unordered ([4]; 35 ℃): 0.464
- helix1 ([4]; 45 ℃): 0.187
- helix2 ([4]; 45 ℃): 0.158
- helix % ([4]; 45 ℃): 34.5%
- strand1 ([4]; 45 ℃): 0.052
- strand2 ([4]; 45 ℃): 0.05
- total helix ([4]; 45 ℃): 0.345
- turns ([4]; 45 ℃): 0.11
- unordered ([4]; 45 ℃): 0.444
- helix1 ([4]; 55 ℃): 0.186
- helix2 ([4]; 55 ℃): 0.147
- helix % ([4]; 55 ℃): 33.3%
- strand1 ([4]; 55 ℃): 0.057
- strand2 ([4]; 55 ℃): 0.049
- total helix ([4]; 55 ℃): 0.333
- turns ([4]; 55 ℃): 0.117
- unordered ([4]; 55 ℃): 0.445
- helix1 ([4]; 65 ℃): 0.088
- helix2 ([4]; 65 ℃): 0.108
- helix % ([4]; 65 ℃): 19.6%
- strand1 ([4]; 65 ℃): 0.14
- strand2 ([4]; 65 ℃): 0.096
- total helix ([4]; 65 ℃): 0.196
- turns ([4]; 65 ℃): 0.134
- unordered ([4]; 65 ℃): 0.433
- helix1 ([4]; 75 ℃): 0.041
- helix2 ([4]; 75 ℃): 0.06
- helix % ([4]; 75 ℃): 10.1%
- strand1 ([4]; 75 ℃): 0.132
- strand2 ([4]; 75 ℃): 0.079
- total helix ([4]; 75 ℃): 0.101
- turns ([4]; 75 ℃): 0.348
- unordered ([4]; 75 ℃): 0.341
- α-helicity ([4]; extracted peptide after re-encapsulation in SNCP8): 73.4%
- α-helicity ([4]; peptide extracted from SNCP8@st-p53pep): 34.6%
Compound: CC(C)C[C@@H]1NC(=O)[C@H](CC(C)C)NC(=O)[C@H](CCCNC(=N)N)NC(=O)[C@H](Cc2c[nH]c3ccccc23)NC(=O)[C@H](CC(C)C)NC(=O)[C@H](CC(N)=O)NC(=O)[C@H](NC(=O)[C@H](Cc2ccccc2)NC(=O)[C@@H](NC(=O)[C@H](CCC(N)=O)NC(=O)[C@H](CCC(N)=O)NC(=O)[C@H](CO)NC(=O)[C@H](CCC(N)=O)NC(=O)CNC(=O)CNC(=O)c2ccc3c(c2)C(=O)OC32c3ccc(O)cc3Oc3cc(O)ccc32)[C@@H](C)O)CCCCNC(=O)CCc2cn(nn2)CCC[C@@H](C(=O)N[C@@H](CCC(N)=O)C(=O)N[C@@H](CC(N)=O)C(N)=O)NC1=O [st-p53pep]
- growth of tumor volume (in words) [1]: no notable difference
- MDM2 level relative to Control ([2]; /GAPDH, Control = 1): 0.8607
- MDM2 rel. (/GAPDH) ([2]; intensity divided by GAPDH): 0.7522
